According to PubChem BioAssay (NCI):
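Following 48 hours of exposure in 96-well plates, responses at five concentrations were used to interpolate endpoints linearly. TGI: total growth inhibition.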

What was measured:
Experiment in all cases: NCI anticancer screen, dose series, 48 h
M19-MEL melanoma = system: M19-MEL melanoma
LXFL 529 NSCLC = system: LXFL 529 NSCLC
RPMI-8226 leukemia = system: RPMI-8226 leukemia
KM12 colon = system: KM12 colon
RXF-631 renal = system: RXF-631 renal
UACC-62 melanoma = system: UACC-62 melanoma
DMS 273 small cell lung = system: DMS 273 small cell lung
U251 CNS = system: U251 CNS
MALME-3M melanoma = system: MALME-3M melanoma
MOLT-4 leukemia = system: MOLT-4 leukemia
DLD-1 colon = system: DLD-1 colon
SF-268 CNS = system: SF-268 CNS
NCI-H522 lung = system: NCI-H522 lung
786-0 renal = system: 786-0 renal
M14 melanoma = system: M14 melanoma
K-562 leukemia = system: K-562 leukemia
TK-10 renal = system: TK-10 renal
SK-MEL-5 melanoma = system: SK-MEL-5 melanoma
HOP-92 NSCLC = system: HOP-92 NSCLC
XF 498 CNS = system: XF 498 CNS
EKVX NSCLC = system: EKVX NSCLC
SF-295 CNS = system: SF-295 CNS
SK-MEL-28 melanoma = system: SK-MEL-28 melanoma
KM20L2 colon = system: KM20L2 colon
UO-31 renal = system: UO-31 renal
HCT-116 colon = system: HCT-116 colon
LOX IMVI melanoma = system: LOX IMVI melanoma
NCI-H23 lung = system: NCI-H23 lung
SNB-75 CNS = system: SNB-75 CNS
CCRF-CEM leukemia = system: CCRF-CEM leukemia
ACHN renal = system: ACHN renal
SK-MEL-2 melanoma = system: SK-MEL-2 melanoma
UACC-257 melanoma = system: UACC-257 melanoma
SNB-19 CNS = system: SNB-19 CNS
SN12C renal = system: SN12C renal
CAKI-1 renal = system: CAKI-1 renal
IGROV1 ovarian = system: IGROV1 ovarian
SR leukemia = system: SR leukemia
HCT-15 colon = system: HCT-15 colon
NCI-H226 lung = system: NCI-H226 lung
SK-OV-3 ovarian = system: SK-OV-3 ovarian
HT29 colon = system: HT29 colon
SNB-78 CNS = system: SNB-78 CNS
A549 NSCLC = system: A549 NSCLC
OVCAR-3 ovarian = system: OVCAR-3 ovarian
SF-539 CNS = system: SF-539 CNS
SW-620 colon = system: SW-620 colon
HL-60(TB) leukemia = system: HL-60(TB) leukemia

Measured: TGI

Cc1ccc(S(=O)(=O)CC(=O)CC(=O)C(=O)Nc2cccc(C(F)(F)F)c2)cc1
> 100 µM: M19-MEL melanoma | LXFL 529 NSCLC | RPMI-8226 leukemia | KM12 colon | RXF-631 renal | UACC-62 melanoma | DMS 273 small cell lung | U251 CNS | MALME-3M melanoma | MOLT-4 leukemia | DLD-1 colon | SF-268 CNS | NCI-H522 lung | 786-0 renal | M14 melanoma | K-562 leukemia | TK-10 renal | SK-MEL-5 melanoma | HOP-92 NSCLC | XF 498 CNS | EKVX NSCLC | SF-295 CNS | SK-MEL-28 melanoma | KM20L2 colon | UO-31 renal | HCT-116 colon | LOX IMVI melanoma | NCI-H23 lung | SNB-75 CNS | CCRF-CEM leukemia | ACHN renal | SK-MEL-2 melanoma | UACC-257 melanoma | SNB-19 CNS | SN12C renal | CAKI-1 renal | IGROV1 ovarian | SR leukemia | HCT-15 colon | NCI-H226 lung | SK-OV-3 ovarian | HT29 colon | SNB-78 CNS | A549 NSCLC | OVCAR-3 ovarian | SF-539 CNS | SW-620 colon | HL-60(TB) leukemia
